Columns and labels:
rat B1R = biological target: T1, rat B1R (Rattus norvegicus, UniProt P97583); assay: Functional investigation on the bradykinin receptor 1 (B1R), FLIPR Ca2+ assay, rB1R cells; format: cell-based; settings: % inhibition rat B1R at 10 μM; CHO K1 cells transfected with rat B1R; agonist Des-Arg9 bradykinin at EC80; read-out: % Inh. (rat B1R) 10 μM
T1 construct: expressed in transfected cells; host or cells: CHO K1 cells
T1 sequence (P97583 1-337): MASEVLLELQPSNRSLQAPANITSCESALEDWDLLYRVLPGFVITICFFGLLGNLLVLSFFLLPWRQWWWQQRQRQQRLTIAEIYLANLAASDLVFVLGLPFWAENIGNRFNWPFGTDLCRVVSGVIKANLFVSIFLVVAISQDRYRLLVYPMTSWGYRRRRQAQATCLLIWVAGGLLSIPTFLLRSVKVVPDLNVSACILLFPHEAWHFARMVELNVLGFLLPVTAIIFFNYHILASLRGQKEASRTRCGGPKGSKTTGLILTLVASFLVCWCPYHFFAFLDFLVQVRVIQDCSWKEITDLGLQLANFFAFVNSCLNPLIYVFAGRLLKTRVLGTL
Description: (§1) The agonistic or antagonistic action of substances can be quantified on the bradykinin receptor 1 (B1R) of the human and rat species with ectopically expressing cell lines (CHO K1 cells) and with the aid of a Ca^2+-sensitive dye (Fluo-4) using a fluorescent imaging plate reader (FLIPR). The indication in % activation is based on the Ca^2+ signal after addition of Lys-Des-Arg^9 bradykinin (0.5 nM) or Des-Arg^9 bradykinin (100 nM). Antagonists lead to a suppression of the Ca^2+ influx following administration of the agonist. The % inhibition in comparison with the maximum achievable inhibition is indicated.
(§2) The agonistic or antagonistic action of substances can be determined on the bradykinin 1 receptor (B1R) of the human and rat species with the following assay. According to this assay, the Ca^2+ inflow through the channel is quantified with the aid of a Ca^2+-sensitive dye (Fluo-4 type, Molecular Probes Europe BV, Leiden, The Netherlands) in a fluorescent imaging plate reader (FLIPR, Molecular Devices, Sunnyvale, USA).
(§3) Chinese hamster ovary cells (CHO K1 cells) which are stably transfected with the human B1R gene (hB1R cells) or the B1R gene of the rat (rB1R cells) are used. For functional investigations, these cells are plated-out onto black 96-well plates with a clear base (BD Biosciences, Heidelberg, Germany or Greiner, Frickenhausen, Germany) in a density of 20,000-35,000 cells/well. Overnight, the cells are incubated at 37° C. and 5% CO2 in culture medium (hB1R cells: Nutrient Mixture Ham's F12, Gibco Invitrogen GmbH, Karlsruhe, Germany or DMEM, Sigma-Aldrich, Taufkirchen, Germany; rB1R cells: D-MEM/F12, Gibco Invitrogen, Karlsruhe, Germany) with 10 vol. % FBS (foetal bovine serum, Gibco Invitrogen GmbH, Karlsruhe, Germany or PAN Biotech GmbH, Aidenbach, Germany). On the following day the cells are loaded with 2.13 μM Fluo-4 (Molecular Probes Europe BV, Leiden, The Netherlands) in HBSS buffer (Hank's buffered saline solution, Gibco Invitrogen GmbH, Karlsruhe, Germany) with 2.5 mM probenecid (Sigma-Aldrich, Taufkirchen, Germany) and 10 mM HEPES (Sigma-Aldrich, Taufkirchen, Germany) for 60 min at 37° C. The plates are the washed twice with HBSS buffer, and HBSS buffer which additionally contains 0.1% BSA (bovine serum albumin; Sigma-Aldrich, Taufkirchen, Germany), 5.6 mM glucose and 0.05% gelatine (Merck KGaA, Darmstadt, Germany) is added. After a further incubation of 20 minutes at room temperature, the plates are inserted into the FLIPR for Ca^2+ measurement. Alternatively they are washed with buffer A (15 mM HEPES, 80 mM NaCl, 5 mM KCl, 1.2 mM CaCl2, 0.7 mM MgSO4, 2 g/l glucose, 2.5 mM probenecid) and loaded with buffer A with added 2.5 μM Fluo-4 and 0.025% Pluronic F127 (Sigma-Aldrich, Taufkirchen, Germany). The cells are then washed twice with buffer A and incubated for 30 minutes with buffer A, which additionally contains 0.05% BSA and 0.05% gelatine, at room temperature and then used for Ca^2+ measurement in the FLIPR.
(§4) The Ca^2+-dependent fluorescence is measured here before and after addition of substances (λex=488 nm, λem=540 nm). The quantification is performed by measuring the highest fluorescence intensity (FC, fluorescence counts) over time.
(§5) The FLIPR protocol comprises two additions of substance. Test substances (10 μM) are first pipetted onto the cells and the Ca^2+ inflow is compared with the control (hB1R: Lys-Des-Arg^9 bradykinin>=50 nM; rB1R: Des-Arg^9 bradykinin 10 μM). The value in % activation based on the Ca^2+ signal after addition of Lys-Des-Arg^9 bradykinin (>=50 nM) or Des-Arg^9 bradykinin (10 μM) is obtained therefrom. After incubation for 10-20 minutes, Lys-Des-Arg^9 bradykinin (hB1R) or Des-Arg^9 bradykinin (rB1R) is applied in the EC80 concentration and the inflow of Ca^2+ is likewise determined. Antagonists lead to a suppression of the Ca^2+ inflow. The % inhibition in comparison with the maximum achievable inhibition is calculated. […]

human B1R = biological target: T2, human B1R (Homo sapiens, UniProt P46663); assay: Functional investigation on the bradykinin receptor 1 (B1R), FLIPR Ca2+ assay, hB1R cells; format: cell-based; settings: % inhibition human B1R at 10 μM; CHO K1 cells transfected with human B1R; agonist Lys-Des-Arg9 bradykinin at EC80; read-out: % Inh. (hum. B1R) 10 μM
T2 construct: expressed in transfected cells; host or cells: CHO K1 cells
T2 sequence (P46663 1-353): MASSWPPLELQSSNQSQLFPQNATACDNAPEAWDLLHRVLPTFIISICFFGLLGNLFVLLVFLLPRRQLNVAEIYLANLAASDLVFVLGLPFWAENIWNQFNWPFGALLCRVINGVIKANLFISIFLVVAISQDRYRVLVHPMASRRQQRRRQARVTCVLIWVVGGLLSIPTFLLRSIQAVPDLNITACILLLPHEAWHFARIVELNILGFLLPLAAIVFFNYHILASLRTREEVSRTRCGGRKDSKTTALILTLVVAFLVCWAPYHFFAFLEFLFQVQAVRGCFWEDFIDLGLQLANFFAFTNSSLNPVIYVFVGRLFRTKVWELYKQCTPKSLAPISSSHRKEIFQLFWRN
Description: as §1, §2, §3, §4, §5

Row | Structure (SMILES) | inhibition at 10 µM (rat B1R) | inhibition at 10 µM (human B1R)
1 | COc1cc(C)c(S(=O)(=O)N2CCCCC2COCC(=O)N2CCC3(CC2)CCC(c2cccc(F)c2)(N2CCCC2)CC3)c(C)c1 (stereo not shown) [CC-03, 1-[3-(3-Fluorophenyl)-3-pyrrolidin-1-yl-9-azaspiro[5.5]undecan-9-yl]-2-[[1-[(4-methoxy-2,6-dimethyl-phenyl)sulfonyl]-piperidin-2-yl]-methoxy]-ethanone] | 99% | 100%
2 | CN(C)C1(c2cccs2)CCC2(CCN(C(=O)CC(NS(=O)(=O)c3ccc4ccccc4c3)c3ccccc3)CC2)CC1 (stereo not shown) [CC-15, N-[3-(3-Dimethylamino-3-thiophen-2-yl-9-azaspiro[5.5]undecan-9-yl)-3-oxo-1-phenyl-propyl]-naphthalene-2-sulfonic acid amide] | 100% | 69%
3 | O=C(CC(NS(=O)(=O)c1ccc2ccccc2c1)c1ccccc1)N1CCC2(CC1)CCC(c1cccc(F)c1)(N1CCCC1)CC2 (stereo not shown) [CC-08, N-[3-[3-(3-Fluorophenyl)-3-pyrrolidin-1-yl-9-azaspiro[5.5]undecan-9-yl]-3-oxo-1-phenyl-propyl]-naphthalene-2-sulfonic acid amide] | 96% | 81%
4 | Cc1cc(S(=O)(=O)N2CCCCC2CCC(=O)N2CCC3(CC2)CCC(c2cccc(F)c2)(N2CCCC2)CC3)c(C)cc1Cl (stereo not shown) [CC-07, 3-[1-[(4-Chloro-2,5-dimethyl-phenyl)sulfonyl]-piperidin-2-yl]-1-[3-(3-fluorophenyl)-3-pyrrolidin-1-yl-9-azaspiro[5.5]undecan-9-yl]-propan-1-one] | 86% | 99%
5 | COc1cc(C)c(S(=O)(=O)N2CCCCC2COCC(=O)N2CCC3(CC2)CCC(c2cccs2)(N(C)C)CC3)c(C)c1 (stereo not shown) [CC-11, 1-(3-Dimethylamino-3-thiophen-2-yl-9-azaspiro[5.5]undecan-9-yl)-2-[[1-[(4-rnethoxy-2,6-dimethyl-phenyl)sulfonyl]-piperidin-2-yl]-methoxy]-ethanone] | 98% | 100%
6 | COc1cc(C)c(S(=O)(=O)N2CCCCC2CCCC(=O)N2CCC3(CC2)CCC(c2ccccc2)(N(C)C)CC3)c(C)c1 (stereo not shown) [Compound 8, 1-(9-(Dimethylamino)-9-phenyl-3-azaspiro[5.5]undecan-3-yl)-4-(1-(4-methoxy-2,6-dimethylphenylsulfonyl)piperidin-2-yl)butan-1-one] | 98% | 98%
7 | COc1cc(C)c(S(=O)(=O)N2c3ccccc3C[C@H]2COCC(=O)N2CCC3(CC2)CCC(c2ccccc2)(N(C)C)CC3)c(C)c1 [Compound 4, 1-(9-(Dimethylamino)-9-phenyl-3-azaspiro[5.5]undecan-3-yl)-2-(((S)-1-(4-methoxy-2,6-dimethylphenylsulfonyl)indolin-2-yl)methoxy)ethanone] | 102% | 98%
8 | COc1cc(C)c(S(=O)(=O)N2CCCCC2COCC(=O)N2CCC3(CC2)CCC(c2ccccc2)(N2CCCC2)CC3)c(C)c1 (stereo not shown) [Compound 1, 2-((1-(4-Methoxy-2,6-dimethylphenylsulfonyl)piperidin-2-yl)methoxy)-1-(9-phenyl-9-(pyrrolidin-1-yl)-3-azaspiro[5.5]undecan-3-yl)ethanone] | 92% | 100%
9 | Cc1cccc(Cl)c1S(=O)(=O)N1CCCC[C@H]1COCC(=O)N1CCC2(CC1)CCC(c1ccccc1)(N(C)C)CC2 [Compound 6, 2-(((S)-1-(2-Chloro-6-methylphenylsulfonyl)piperidin-2-yl)methoxy)-1-(9-(dimethylamino)-9-phenyl-3-azaspiro[5.5]undecan-3-yl)ethanone] | 97% | 100%
10 | CN(C)C1(c2cccs2)CCC2(CCN(C(=O)CC3CCCCN3S(=O)(=O)c3cccc(C(F)(F)F)c3)CC2)CC1 (stereo not shown) [CC-10, 1-(3-Dimethylamino-3-thiophen-2-yl-9-azaspiro[5.5]undecan-9-yl)-2-[1-[[3-(trifluoromethyl)phenyl]sulfonyl]-piperidin-2-yl]-ethanone] | 79% | 84%
11 | Cc1cccc(Cl)c1S(=O)(=O)N(CCOCC(=O)N1CCC2(CC1)CCC(c1cccs1)(N(C)C)CC2)C1CC1 [CC-09, 2-Chloro-N-cyclopropyl-N-[2-[2-(3-dimethylamino-3-thiophen-2-yl-9-azaspiro[5.5]undecan-9-yl)-2-oxo-ethoxy]-ethyl]-6-methyl-benzenesulfonic acid amide] | 97% | 100%
12 | COc1cc(C)c(S(=O)(=O)N2CCCC[C@H]2COCC(=O)N2CCC3(CC2)CCC(c2ccccc2)(N(C)C)CC3)c(C)c1 [Compound 2, 1-(9-(Dimethylamino)-9-phenyl-3-azaspiro[5.5]undecan-3-yl)-2-(((S)-1-(4-methoxy-2,6-dimethylphenylsulfonyl)piperidin-2-yl)methoxy)ethanone] | 94% | 100%
13 | Cc1cccc(Cl)c1S(=O)(=O)N1CCCCC1COCC(=O)N1CCC2(CC1)CCC(c1cccc(F)c1)(N1CCCC1)CC2 (stereo not shown) [CC-05, 2-[[1-[(2-Chloro-6-methyl-phenyl)sulfonyl]-piperidin-2-yl]-methoxy]-1-[3-(3-fluorophenyl)-3-pyrrolidin-1-yl-9-azaspiro[5.5]undecan-9-yl]-ethanone] | 98% | 100%
14 | COc1cc(C)c(S(=O)(=O)N(CCOCC(=O)N2CCC3(CC2)CCC(c2cccc(F)c2)(N2CCCC2)CC3)C2CC2)c(C)c1 [CC-04, N-Cyclopropyl-N-[2-[2-[3-(3-fluorophenyl)-3-pyrrolidin-1-yl-9-azaspiro[5.5]undecan-9-yl]-2-oxo-ethoxy]-ethyl]-4-methoxy-2,6-dimethyl-benzenesulfonic acid amide] | 98% | 100%

Reference: patent publication US8278319B2, “Substituted spiroamine compounds” (Gruenenthal GmbH, priority 2008, dated 2012)
